Solubility data for one compound are collected here from patent US20170130052A1, “A POLYMER BASED ON A MALTODEXTRIN FOR ENCAPSULATING ORGANIC COMPOUNDS” (ROQUETTE ITALIA S.P.A., priority 2014, published 2017).

In brackets after ≈: the same amount, converted by molar mass.

The data set in a line: Solubility of ketoprofen/dexamethasone owing to encapsulation in the polymers. As to conditions: water.

Turning to `C[C@@H]1C[C@H]2[C@@H]3CCC4=CC(=O)C=C[C@]4(C)[C@@]3(F)[C@@H](O)C[C@]2(C)[C@@]1(O)C(=O)CO` [Dexamethasone], the concentration in solution (solubility) was 90 µg/mL (≈ 229 µM).
